Assay results published in patent EP0180850A2, “Antimycotic azolyl-methyl-cyclopropyl-carbinol derivatives” (BAYER AG, priority 1984, dated 1986).

Key:
Candida-Zellen = test: Antimycotic in-vivo activity (oral) in mouse candidosis; set-up: species or system Mäuse vom Typ SPF-CF1; conditions: mice infected i.v. with 1-2 x 10^6 Candida cells; oral 10 to 100 mg/kg one hour before and seven hours after infection; survival on day 6 p.i.
Description: Versuchsbeschreibung: • Mäuse vom Typ SPF-CF1 wurden intravenös mit-1-2 x 10^6 logarithmisch wachsenden Candida-Zellen, die in physiologischer Kochsalzlösung suspendiert werden, infiziert. Eine Stunde vor und sieben Stunden nach der Infektion werden die Tiere mit jeweils 10 bis 100 mg/kg Körpergewicht der Präparate oral behandelt.
Unbehandelte Tiere starben am 3. bis 6. Tag post infektionem. Die Überlebensrate am 6. Tag post infektionem betrug bei unbehandelten Kontrolltieren etwa 5 %.

[1] = tested on: Dermatophyten, Schimmelpilze, Hefen; test: Antimycotic in-vitro activity, serial dilution test, overall comparison with prior-art compounds; format: cell-based; conditions: compared in words with known compounds (A), (B) and (C)
Description: Versuchsbeschreibung: • Die in-vitro-Prüfungen wurden im Reihenverdünnungstest mit Keiminokula von durchschnittlich 5 x 10^3 bis 10^4 Keimen/ml Substrat durchgeführt. Als Nährmedium dienten • a) für Dermatophyten und Schimmelpilze: Sabourand's milieu d'epreuve • b) für Hefen: • Fleischextrakt-Traubenzucker-Bouillon.
Die Bebrütungstemperatur betrug 28 bis 37°C, die Bebrütungsdauer lag bei 24 bis 96 Stunden bei Hefen und 96 Stunden bei Dermatophyten und Schimmelpilzen.

Compound	Wirkung (Candida-Zellen)	antimykotische Wirkung [1]
CCSC1(C(O)(Cn2cncn2)c2ccc(Cl)cc2)CC1 (stereo not shown) [I-1, 1-(4-Chlorphenyl)-1-[1-(ethylthio)-1-cyclopropyl]-2-(1,2,4-triazol-1-yl)-1-ethanol]	+++++ (= sehr gute Wirkung = 90 % Überlebende am 6. Tag p.i.)	bessere antimykotische Wirkung
OC(Cn1cncn1)(c1ccccc1)C1(Oc2ccc(Cl)cc2)CC1 (stereo not shown) [I-2]	+++++ (= sehr gute Wirkung = 90 % Überlebende am 6. Tag p.i.)	bessere antimykotische Wirkung
CC[S+]([O-])C1(C(O)(Cn2cncn2)c2ccc(Cl)cc2)CC1 (stereo not shown) [I-3, 1-(4-Chlorphenyl)-1-[1-(ethylsulfinyl)-1-cyclopropyl]-2-(1,2,4-triazol-1-yl)-1-ethanol]	+++++ (= sehr gute Wirkung = 90 % Überlebende am 6. Tag p.i.)	bessere antimykotische Wirkung
CCS(=O)(=O)C1(C(O)(Cn2cncn2)c2ccc(Cl)cc2)CC1 (stereo not shown) [I-4]	+++ (= Wirkung = 60 % Überlebende am 6. Tag p.i.)	bessere antimykotische Wirkung
OC(Cn1cncn1)(c1ccc(Cl)cc1)C1(Oc2ccccc2)CC1 (stereo not shown) [I-5]	+++++ (= sehr gute Wirkung = 90 % Überlebende am 6. Tag p.i.)	bessere antimykotische Wirkung
CCCCSC1(C(O)(Cn2cncn2)c2ccc(Cl)cc2)CC1 (stereo not shown) [I-6]	++++ (= gute Wirkung = 80 % Überlebende am 6. Tag p.i.)	bessere antimykotische Wirkung
CCCCS(=O)(=O)C1(C(O)(Cn2cncn2)c2ccc(Cl)cc2)CC1 (stereo not shown) [I-7]	+++++ (= sehr gute Wirkung = 90 % Überlebende am 6. Tag p.i.)	bessere antimykotische Wirkung
OC(Cn1cncn1)(c1ccc(Cl)cc1)C1(Sc2ccc(Cl)cc2)CC1 (stereo not shown) [I-11]	–	bessere antimykotische Wirkung
OC(Cn1cncn1)(c1ccc(Cl)cc1)C1(SCc2ccc(Cl)cc2)CC1 (stereo not shown) [I-13]	+++++ (= sehr gute Wirkung = 90 % Überlebende am 6. Tag p.i.)	–
